From patent publication US10785978B2, “Control and repellency of biting flies, house flies, ticks, ants, fleas, biting midges, cockroaches, spiders and stink bugs” (priority 2012, dated 2020)

Columns and labels:
Type in all cases: in vivo
house flies = test: House fly repellency on treated filter paper food trays in cages; conditions: over 6 hours
Experimental: The bottom of each cage was lined with brown craft paper and divided into 4 equal quadrants. Each quadrant housed a makeshift filter paper food tray. Two of the four filter papers were treated with repellent and two treated with isopropanol. Control cages contained filter papers that were treated with 4 filter papers of isopropanol only. The number of flies resting on filter paper per quadrant was recorded every 30 minutes for a total of 6 hours. Cages were rotated to eliminate positional bias. […] Each of the test samples were diluted in isopropyl alcohol.

Pharaoh ants = test: Pharaoh ant behaviour at treated-untreated interface on poster board; conditions: 50% in acetone; 5 minutes after release
Experimental: Pharaoh ants were tested using the following protocol. The side of a 17″×23″ rectangular sheet of poster board was sprayed with the test sample or acetone, except for a region within a 6″ circle. The treated poster board was allowed to dry. Five worker ants were placed in the center of the 6″ untreated circle and allowed to wander outside the circle onto the treated surface. The behavior of the ants at the treated-untreated interface was recorded for 5 minutes after release. Test compounds were diluted in acetone.

[1] = system: Brown Dog Ticks, Rhipicephalus sanguineus; test: Brown Dog tick repellency on vertical filter paper strips
Experimental: Control against Brown Dog ticks was determined in the following protocol. Strips of filter paper, 1″ by 3″, were placed on a sheet of aluminum foil treated with 1 ml each of the test samples and allowed to dry. The end of each treated strip was stapled to an untreated filter paper strip of the same dimensions. The stapled strips were suspended in a vertical position above a tray, with the treated half attached to a horizontal glass rod by a metal clip. The untreated half was lowered when the strip is vertically positioned. Brown Dog Ticks, Rhipicephalus sanguineus, mixed sexes, were purchased from a supplier. Five replicates of five ticks for each treatment regimen plus five additional replicates for the control were employed. Ticks shipped to the test site were given at least one day to acclimate to “shipping stress” before they are used for testing. Those tick specimens which appeared sluggish or moribund were not used. Suitable ticks were removed from their containers and allowed to quest on the free end of the test strip. Once present on the strip they were watched as they crawled up the strip until they contacted the treated paper. If the tick, once in contact with the treated zone, either turned around, stopped without proceeding further, or dropped off, the tick is classified as repelled. If it continued to crawl onto the treated strip, even after it stopped briefly, that tick was classified as not repelled. A maximum observation time of 1 minute per replicate was allowed for ticks to respond after reaching the treated area, but during the test, if more time was needed, the maximum observation time may have been adjusted at the discretion of the study coordinator. At the end of the observation time, the number of ticks repelled was recorded. Tick behavior was recorded when applicable, such as whether increased number of affected or repelled ticks occurred in successive replicates over time. After the completion of each treatment parameter, the testing chamber was ventilated for five minutes by turning on the exhaust fan and opening the door leading into the chamber. Ticks were used only once. Average number of ticks displaying each behavior category were calculated and compared to the control replicates.

German cockroaches = test: German cockroach repellency, choice of food stations in arena; conditions: 50% in acetone; at 4 hours
Experimental: The efficacy of compounds of this invention to control or repel German cockroaches was illustrated using the following protocol. One food pellet each was placed on a paper square (station) treated with one of the repellent materials. Materials were diluted to 50% in acetone and a straight acetone station was also used. Both stations were placed on the same side of the arena. Cockroaches were starved for 2 days and then released into the arena. They were given a choice to feed on either food pellet. A control arena with an acetone treated station and an untreated station was also used. The distribution of cockroaches within the arena was recorded at 30 minute intervals over 4 hours. Repellency at 4 hours was calculated by the number of cockroaches on the untreated station vs. the total number of cockroaches on the stations.

[2] = system: brown marmorated stink bugs (BMSB); test: Brown marmorated stink bug repellency, treated vs. untreated filter paper arena
Experimental: The two semi-circle filter papers were aligned together to completely cover the bottom of the test arena. Control arenas were also set up in a similar fashion except both were treated with acetone. Five replicates of 5 BMSB were then introduced into both the treated and control arenas. By releasing them in the center of the arena, the BMSB were presented with a choice of treated vs. untreated substrate (or untreated vs. untreated in the control arenas). The repellency of the BMSB was recorded at 24 hours post-treatment.

[3] = system: Brown Dog Ticks, Rhipicephalus sanguineus; conditions: in vivo
Source text: The following protocol was employed to test compounds of this invention for toxicity (mortality) against ticks. There were 5 replicates of 5 dog ticks for each treatment. […] Filter paper strips were laid on a sheet of aluminum foil and enough of each of the test sample was applied to thoroughly saturate the paper. The paper was then rolled and placed inside a glass shell vial as to line the sides of the vial. A small paper disc, also saturated with the test sample, was then placed at the bottom of the vial. Brown Dog Ticks, Rhipicephalus sanguineus, were then introduced into the vials which were covered with aluminum foil, the inside of which was painted with some of the test sample. The ticks remained in the vials, constantly exposed to the test samples, for the duration of the test. A small hole was poked through the foil for ventilation. Each control replicate was subjected to the same procedures outlined above, except that they were not treated. The controls were placed in the same area as the test replicates for the duration of the test. Mortality observations were made at 24 hours. Ticks were classified as alive (able to move normally), moribund (those classified as moribund will show some movement, but will not be able to crawl in a coordinated manner, or will be unable to right themselves if placed on their backs), or dead (no movement after physical stimuli). All dead ticks were confirmed by probing or agitation to make sure that they are unable to move; any that show movement visible to the naked eye were recorded as moribund. At 24 hours the tick mortality was 0% for the control, 100% for γ-dodecalactone, 100% for methyl apritone and 76% for methyl dihydrojasmonate.

stable flies [4] = test: Stable fly probing on treated warmed blood-filled membranes; conditions: for Probes at 7% test compound: 7% in isopropyl alcohol on membrane; for Probes at 7% test compound / Probes at 15% test compound: twenty minutes, percent of control probes taken as 100%; for Probes at 15% test compound: 15% in isopropyl alcohol on membrane
Experimental: Five replicates of 100 mixed-sex stable flies each were placed in screened cages. The cages were placed in such a way that the stable flies had access to five warmed, blood-filled membrane walls. The membranes were treated with methyl dihydrojasmonate, gamma-dodecalactone, methyl apritone, or DEET® all at 7% and at 15% in isopropyl alcohol, or isopropyl alcohol as a control. There were five replicates tested with a positional rotation of the repellent at each replicate. Fresh batches of stable flies were used for each replicate. Thus each test sample was tested on each of the five wells, which allowed any positional bias to be eliminated. The number of stable flies probing each well was recorded at two minute intervals for twenty minutes. The total number of probes on each well were tallied at the end of the twenty minute observation period and the average percentage repellency was calculated for each compound. An analysis of variance was conducted to compare the average number of probes on each treatment membrane. The number of probes for the control was taken as the 100% baseline and the percentage for the test compounds is the percent for the number of probes for the test compound compared to the number of control probes.

Black Widow spiders = test: Black Widow spider choice test in half-treated tube shelters; conditions: 5% in isopropanol; location after 24 hours
Experimental: Control against Black Widow spiders was determined using the following protocol. One test container containing two card stock tube shelters, one half treated with a test sample and the other half treated with isopropanol was prepared. A spider was introduced in the center of the tube. The spider was then given a choice to move to one end of the shelters. The following day, its location is recorded and compared to the results from a shelter containing untreated half-shelters.
On the day of the test one of the two shelters was sprayed with the test sample solution using a 2 oz pump spray bottle. Only the surfaces that the spider will most likely contact were treated. Therefore, only the inside of one of the shelter tubes, including the end disc (spiders will not be able to access the outside part of the shelter) were sprayed. The total amount of product was weighed and recorded. The treated surface was allowed to dry for a minimum of ½ hour, or until solvent could not be detected by smell. At this time the shelter tubes were assembled.
Card stock paper tube shelters were constructed from 2 half-letter sized sheets (5½″×8½″) of paper, rolled and taped together to form a short tube. One end of each was covered with a circle of card stock paper, while the other end was later taped to the open end of the other half sheet, forming one long tube. […] The solvent-treated half was labeled with a “C” on the inner and outer walls with a pencil or a pen with solvent resistant ink. Prior to forming the final tube shelter, a semi-circular hole was cut into one of the margins of each sheet such that, once the two tubes are taped together, the holes correspond to the top and at the junction of the tubes for introduction of the spiders.
Twenty-five arenas were prepared in this manner for each test sample. There were five replicates of five spiders. Twenty-five additional control arenas were also prepared. They were prepared the same way, except that areas to be sprayed were sprayed with isopropanol only.
Replicates of five spiders were selected for each test formulation and for the control. The specimens were visually examined for overall physical condition. […] The spiders were transferred directly into the holding vials using flexible forceps or with a little coaxing with an artist brush. Because of their cannibalistic tendencies, each vial contained only one spider. There they were held until the time for testing.
At the test start the spiders were placed directly in the middle, through the opening at the top of the shelter tube, and the opening covered, with only one spider per arena. […] They were left alone for 24 hours, after which time their location within the arena was recorded. Spiders present inside the shelter treated with the test repellent were considered tolerant.

stable flies [5] = test: Human forearm test against stable flies, time to first confirmed bite; conditions: average of two trials, maximum 8 hours
Experimental: Two insect repellents per day were tested by applying one on each arm of a human subject and inserting the arms into a cage containing 50 stable flies. The exposure period was five minutes at every 30 minute interval until the first time a confirmed bite was […] The stable flies were reared at ambient temperature, relative humidity and photoperiod. Groups of 50 flies were aspirated from the cage and released into 16 oz. cups with screened lids, which were used to release flies into the two test cages. […] Adjacent areas above and below the treated area were protected with elastic bandages held in place with Elastikon® surgical tape.
The application rate was between 0.65 ml and 1 ml/250 cm^2 for all repellents. The actual amount of repellent used was based upon the amount that provides thorough coverage of the 250 cm^2 treatment area. A repellent was applied using either a micropipette or a syringe minus the needle. The repellents were then evenly spread on the treatment area with a gloved finger. Each test subject's forearms were allowed to air dry for approximately 30 minutes prior to the first exposure. The study coordinator or technician assisted the test subjects in inserting their arms into the test cages, taking care not to rub them on the cloth sleeve. Both treated arms were inserted into a cage; there were two subjects (4 arms) per cage. The test subjects exposed their treated forearms to the flies in the test cages for 5 minutes. The subjects then removed their arms from the cages with assistance from the study coordinator or a technician. Exposures of each arm were repeated every 30 minutes until the repellent on that arm was determined to be no longer effective (‘breakdown’) or until 8 hours have elapsed, whichever occurs first.
Breakdown occurs when the first confirmed bite is noted. A confirmed bite occurs when a bite is followed by a second bite in the same exposure period or in the next succeeding exposure period. The second bite becomes the confirming bite and the breakdown time is taken as the time of the first bite. When a confirmed bite occurs, testing is discontinued on that arm. Results in Table 3 below are the average of two trials on two different test subjects. Compounds were diluted in isopropyl alcohol.

Brown Dog Ticks = test: Second repellent assay against Brown Dog Ticks; conditions: 7% in isopropyl alcohol
Experimental: Also, a second repellent assay was used to evaluate six test samples against Brown Dog Ticks. Five replicates of five ticks were given the opportunity to quest onto a vertical strip of untreated filter paper and then allowed to move upward toward a second vertical strip of filter paper treated with one of the six candidate repellents or DEET®. In the control situation, the second strip was treated with isopropanol. They were then observed for directional or behavioral changes caused in response to contact with the repellent. Ticks were recorded as either repelled or not repelled. Compounds were diluted in isopropyl alcohol. The percentages of ticks repelled are shown below in Table 6.

[6] = 30% in isopropyl alcohol on forearm

CCCCCCCCC1CCC(=O)O1 (stereo not shown) [gamma-Dodecalactone, gamma-dodecalactone]
Overall % Repellency (house flies; 7.5% in isopropyl alcohol): 100% | % crossed without stopping (Pharaoh ants): 82% | % slowed, but crossed (Pharaoh ants): 8% | % stopped at interface (Pharaoh ants): 10% | Mean % repelled ([1]; Neat): 100% | ticks repelled ([1]; concentration not given): 100% | % Repellency 4 hr (German cockroaches): 96.6% | % Repellency at 24 hours ([2]; 10% in isopropyl alcohol): 100% | 24 hr mortality (%) [3]: 100% | tick mortality at 24 hours [3]: 100% | Probes at 7% test compound (stable flies [4]): 6.2% | Probes at 15% test compound (stable flies [4]): 3.6% | repellency compared with DEET (stable flies [4]; at the same concentrations (7% and 15%)): repelled better than DEET®

CCCCCCCCCCCC1CCC(=O)O1 (stereo not shown) [gamma Pentadecalactone]
Overall % Repellency (house flies; 7.5% in isopropyl alcohol): 87% | % Repellency (Black Widow spiders): 75.0%

CC1CCC(C(C)(C)O)C(O)C1 (stereo not shown) [PMD, p-Menthane-3,8-diol, reference compound]
100% bite protection for (stable flies [5]; 15% in isopropyl alcohol on forearm): 4.25 h | 100% bite protection for (stable flies [5]; [6]): 6.5 h | % Repellency at 24 hours ([2]; 2.5% in isopropyl alcohol): 80%

CCN(CC)C(=O)c1cccc(C)c1 [DEET ®, N,N-Diethyl-m-toluamide, reference compound]
Mean % repelled (Brown Dog Ticks): 96% | Probes at 7% test compound (stable flies [4]): 45.9% | Probes at 15% test compound (stable flies [4]): 16.2%

CCCCCCCCCC1(C)CCC(=O)O1 (stereo not shown) [gamma-Methyl tridecalactone, gamma methyl tridecalactone]
100% bite protection for (stable flies [5]; [6]): 1.75 h | % Repellency at 24 hours ([2]; 2.5% in isopropyl alcohol): 80%

CCCCCCCCCC1CCC(=O)O1 (stereo not shown) [gamma Tridecalactone, gamma-tridecalactone]
Overall % Repellency (house flies; 5% in isopropyl alcohol): 80% | Overall % Repellency (house flies; 7.5% in isopropyl alcohol): 94% | Mean % repelled ([1]; 7.5% in isopropyl alcohol): 100% | % Repellency at 24 hours ([2]; 5% in isopropyl alcohol): 70% | % Repellency (Black Widow spiders): 75.0%
